Data published in US20200218874A1, “A LABEL-FREE METHOD AND SYSTEM FOR MEASURING DRUG RESPONSE KINETICS OF THREE-DIMENSIONAL CELLULAR STRUCTURES” (AGENCY FOR SCIENCE, TECHNOLOGY AND RESEARCH, priority 2017, published 2020).
“Also recorded” adds a separate entry of the source.

What was measured:
[1] = test system: patient-derived tumour spheroids (head and neck cancer patient); experiment: Label-free image-based drug response (LaFOS) of 3D tumour spheroids over time; assay type: cell-based, human; details: for response of tumour spheroids over time (LaFOS time-course): 24, 48 and 72 hours after treatment, 1 μM
Method: The examples used in this disclosure were generated by seeding 5000 cells into each well of Corning® 384 Well Black Clear Round Bottom Ultra-Low Attachment Spheroid Microplates. The assay plates were incubated at 37° C., 5% CO2 over 3 days to allow formation of the tumour spheroids. At 96 hours, the spheroids were imaged (labelled as “untreated” in the study) using a confocal microscope at 20× (Perkin Elmer Opera Phenix High Content Screening system) and then treated at 1 μM of the compounds (in DMSO). In total, 1,231 spheroids were generated and treated in duplicates at 96 hours with small molecule and kinase inhibitors from the Selleck Anti-cancer library and Selleck Kinase Inhibitor chemical library. The drug treated spheroids were imaged subsequently at 24, 48 and 72 hours after treatment.
Bright-field images of the 1,231 spheroids acquired at different time-points and z-planes were computationally segmented into proliferating (red), quiescent (green) and necrotic (yellow) zones through a method referred to as “Spheroid Peeling” (FIG. 5). Other imaging methods can also be used—Phase contrast imaging, electron microscopy, wide-field, dark-field, super-resolution microscopy, and many more.
Briefly, “Spheroid Peeling” involves repeatedly segmenting the spheroid image from the periphery to the core zone. The entire spheroid was first segmented as an object (hereby referred to as spheroid object) and cropped from the original well image (FIG. 6). An “inner core” was then identified from the spheroid object, hereby referred to as quiescent object. The proliferating zone was obtained by masking the quiescent object from the spheroid object. Similarly, the necrotic zone was identified as the “inner core” of the quiescent object, and the quiescent zone was obtained by masking the necrotic zone from the quiescent object. A number of image features were quantified from each of the proliferating, quiescent and necrotic zones, resulting in a total of 504 image descriptors for each spheroid. The “spheroid peeling” algorithm can be written in a number of languages or image analysis tool, such as Cell Profiler, MATLAB or ImageJ.
FIG. 19 is a flow diagram 700 showing a machine learning based training method in accordance with the present disclosure for generating a computational model (or learning model) of drug response in spheroids. Two sets of spheroids were generated for imaging and for viability measurement, respectively. The two sets of spheroids were treated with the same drugs. For feasibility testing, a training set of 1,231 spheroids 1902 was generated. At 72 hours after drug treatment, acquisition 1904 of bright-field images 1906 was obtained. As data preprocessing 708, “Spheroid Peeling” 1910 was applied to obtain, through image feature quantification 1912, 504 image descriptors from the Proliferating, Quiescent and Necrotic zones of each tumour spheroid, resulting in over ˜600K image descriptors 1916 in total.
The learning process generated a computational model 1922 that can be perceived as a complex multi-feature numerical quantification of the drug response of the spheroids. Generating the computational model includes one or more of training the computational model or determining parameters of the computational model. […]

[2] = test system: spheroids derived from a head and neck cancer patient; experiment: Micrograph morphology of drug-treated patient-derived spheroids; assay type: cell-based, human; details: spheroids approximately 500 microns
Description: All three patient-derived spheroids are of similar sizes of approximately 500 microns.
On the other hand, morphological-based methods primarily use the size/volume or shape of the spheroids.

HN120M PDX = experiment: In vivo treatment of HN120M PDX-bearing mice; details: mice n=6, 5 mg kg^−1 i.p. once every 2 days
Description: (§1) Generation and passaging of PDXs. Tumour samples were obtained from patients post-surgery after obtaining informed patient consent in accordance to SingHealth Centralized Institutional Review Board (CIRB: 2014/2093/B). Tumours were minced into 1 mm^3 fragments and suspended in a mixture of 5% Matrigel (Corning, cat. no. 354234) in DMEM/F12 (Thermo Fisher, cat. no. 10565-018). The tumour fragment mixtures were then implanted subcutaneously into the left and right flanks of 5-7 weeks old NSG (NOD.Cg-Prkdcscid II2rgtm1Wjl/SzJ) (Jackson Laboratory, stock no. 005557) mice, using 18-gauge needles. Tumours were excised and passaged when they reached 1.5 cm^3. […]
(§2) Gefitinib (Iressa) was prepared by dissolving a 250 mg clinical grade tablet (AstraZeneca) in sterile water containing 0.05% Tween-80 (Sigma-Aldrich, cat. no. P4780) to a concentration of 10 mg/mL and administered at a dosage of 25 mg/kg daily via oral gavage. […] The length and width of tumours were measured by caliper once every 2 days. […] The weight of tumour was not directly measured, but were estimated using volume where the density of tissue was assumed to be 1 g/cm^3. The ratio of the change in treated tumour volume (ΔT) to the average change in control tumour volume (ΔT/Average ΔC) at each time point was calculated as follows: […]

HN137M PDX = experiment: In vivo treatment of HN137M PDX-bearing mice; details: male mice n=5, 2 mg kg^−1 i.p. once every 2 days
Description: as §1, §2

HN137P PDX = experiment: In vivo treatment of HN137P PDX-bearing mice; details: male mice n=5, 2 mg kg^−1 i.p. once every 2 days
Description: as §1, §2

In the case of Cn1c(=O)n(-c2ccc(C(C)(C)C#N)cc2)c2c3cc(-c4cnc5ccccc5c4)ccc3ncc21 [BEZ235], the “response of tumour spheroids over time (LaFOS time-course)” value (shortened to “response of tumour spheroids over time”) [1] is reported as “remain unchanged; also recorded: unresponsive”.

With N.N.[Cl][Pt][Cl] [Cisplatin] the “morphological structure of tumour spheroid” value ([2]; high concentration) was “enlarged core zone” and the “morphological structure of tumour spheroid” value ([2]; low concentration) was “resembled that of the untreated spheroid”.

In the case of CN1CC[C@H](c2c(O)cc(O)c3c(=O)cc(-c4ccccc4Cl)oc23)[C@H](O)C1 [Flavopiridol], the “efficacy in in vivo model (PDX)” value (HN120M PDX) is reported as “already validated in in vivo models”.

For COc1ncc(-c2ccc3nccc(-c4ccnnc4)c3c2)cc1NS(=O)(=O)c1ccc(F)cc1F [GSK2126458], the “response of tumour spheroids over time” value [1] was “increasing efficacy” and the inhibition at 1 µM ([1]; Homo sapiens, over the course of 72 hours, duplicate spheroids (R1 and R2), treated at 1 μM, read-out: inhibition rate (4-dimensional drug response of tumor spheroids)) was 80%.

For COc1cc(N2CCC(N3CCN(C)CC3)CC2)ccc1Nc1ncc(Cl)c(Nc2ccccc2S(=O)(=O)C(C)C)n1 [NVP-TAE684], the “response of tumour spheroids over time” value [1] was “increasing efficacy” and the “inhibition rate (4-dimensional drug response of tumor spheroids)” value ([1]; over the course of 72 hours, duplicate spheroids (R1 and R2), treated at 1 μM) was 60%.

With COCCn1c2c([n+](Cc3cnccn3)c1C)C(=O)c1ccccc1C2=O [YM155] the “anti-tumour effect in PDX (tumour volume vs vehicle)” value (HN137M PDX) was “significant anti-tumour effect” and the “anti-tumour effect in PDX (tumour volume vs vehicle)” value (HN137P PDX) was “did not display significant sensitivity”.
